Data from patent publication US20250320227A1, “MACROCYCLIC OREXIN RECEPTOR AGONISTS AND USES THEREOF” (Jazz Pharmaceuticals Ireland Limited, priority 2022, published 2025).

Molecular target: T1, human recombinant OX2 (hOX2) receptors expressed in CHO cells (Homo sapiens, UniProt O43614)
T1 construct: host or cells: CHO cells (hOX2-CHO)
T1 sequence (O43614 1-444): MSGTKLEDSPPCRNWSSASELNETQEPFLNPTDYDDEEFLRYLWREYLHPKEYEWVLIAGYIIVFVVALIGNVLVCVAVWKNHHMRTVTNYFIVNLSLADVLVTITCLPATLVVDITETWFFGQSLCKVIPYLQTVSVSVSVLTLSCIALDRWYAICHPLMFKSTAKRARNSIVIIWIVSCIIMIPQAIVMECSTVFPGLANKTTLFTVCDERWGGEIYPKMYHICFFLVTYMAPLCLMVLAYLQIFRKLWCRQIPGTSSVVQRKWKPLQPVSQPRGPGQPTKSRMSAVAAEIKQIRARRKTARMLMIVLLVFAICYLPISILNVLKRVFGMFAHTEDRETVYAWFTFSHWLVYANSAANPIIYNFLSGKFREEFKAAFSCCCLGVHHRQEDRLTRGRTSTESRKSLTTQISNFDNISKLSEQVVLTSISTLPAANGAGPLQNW
Test: IP-1 accumulation assay (IP-One HTRF) in hOX2-CHO cells
Type: cell-based
Conditions: 60 min incubation at 37° C., mean of at least two independent experiments, read-out: EC50_OX2R Category
Summary of the method: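 IP-1 HTRF (665/615 ratio) after 60 min compound exposure at 37 °C, 11-point dilution, 0.5% DMSO, LiCl-containing HEPES-buffered HBSS pH 7.4. Response expressed as percent of maximal OX-A effect; EC50 by four-parameter logistic fit, averaged over at least two independent experiments in duplicate.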

Row | EC50 | SMILES
1 | < 0.1 µM | O=C1COC[C@]2(CCCN3C(=O)COc4c(F)cc(F)cc4[C@H]4CC[C@H](CC4)OC[C@@H]32)N1 (single isomer, unassigned) [Example 39b]
2 | < 0.1 µM | O=C1COC[C@@]2(CCCN3C(=O)COc4cccc(F)c4[C@H]4CC[C@H](CC4)OC[C@H]32)N1 (single isomer, unassigned) [Example 40a]
3 | 1 to 10 µM | O=C1COC[C@]2(CCCN3C(=O)COc4cccc(F)c4[C@H]4CC[C@H](CC4)OC[C@@H]32)N1 (single isomer, unassigned) [Example 40b]
4 | < 0.1 µM | O=C1COC[C@@]2(CCCN3C(=O)COc4ccc(F)cc4[C@H]4CC[C@H](CC4)OC[C@H]32)N1 (single isomer, unassigned) [Example 41a]
5 | 1 to 10 µM | O=C1COC[C@]2(CCCN3C(=O)COc4ccc(F)cc4[C@H]4CC[C@H](CC4)OC[C@@H]32)N1 (single isomer, unassigned) [Example 41b]
6 | < 0.1 µM | O=C1COC[C@@]2(CCCN3C(=O)COc4cc(F)cc(F)c4[C@H]4CC[C@H](CC4)OC[C@H]32)N1 (single isomer, unassigned) [Example 42a]
7 | 0.1 to 1 µM | O=C1COC[C@]2(CCCN3C(=O)COc4cc(F)cc(F)c4[C@H]4CC[C@H](CC4)OC[C@@H]32)N1 (single isomer, unassigned) [Example 42b]
8 | < 0.1 µM | O=C1COC[C@@]2(CCCN3C(=O)COc4ccc(F)c(F)c4[C@H]4CC[C@H](CC4)OC[C@H]32)N1 (single isomer, unassigned) [Example 43a]
9 | > 10 µM | O=C1COC[C@]2(CCCN3C(=O)COc4ccc(F)c(F)c4[C@H]4CC[C@H](CC4)OC[C@@H]32)N1 (single isomer, unassigned) [Example 43b]
10 | < 0.1 µM | O=C1COC[C@@]2(CCCN3C(=O)COc4c(F)ccc(F)c4[C@H]4CC[C@H](CC4)OC[C@H]32)N1 (single isomer, unassigned) [Example 44a]
11 | > 10 µM | O=C1COC[C@]2(CCCN3C(=O)COc4c(F)ccc(F)c4[C@H]4CC[C@H](CC4)OC[C@@H]32)N1 (single isomer, unassigned) [Example 44b]
12 | < 0.1 µM | O=C1COC[C@@]2(CCCN3C(=O)COc4ncccc4[C@H]4CC[C@H](CC4)OC[C@H]32)N1 (single isomer, unassigned) [Example 45a]
13 | < 0.1 µM | O=C1COC[C@@]2(CCCN3C(=O)COc4nccc(F)c4[C@H]4CC[C@H](CC4)OC[C@H]32)N1 (single isomer, unassigned) [Example 46a]
14 | 1 to 10 µM | O=C1COC[C@]2(CCCN3C(=O)COc4nccc(F)c4[C@H]4CC[C@H](CC4)OC[C@@H]32)N1 (single isomer, unassigned) [Example 46b]
15 | < 0.1 µM | Cc1cccc2c1[C@H]1CC[C@H](CC1)OC[C@@H]1N(CCC[C@@]13COCC(=O)N3)C(=O)CO2 (single isomer, unassigned) [Example 47a]
16 | 1 to 10 µM | Cc1cccc2c1[C@H]1CC[C@H](CC1)OC[C@H]1N(CCC[C@]13COCC(=O)N3)C(=O)CO2 (single isomer, unassigned) [Example 47b]
17 | < 0.1 µM | O=C1COC[C@@]2(CCCN3C(=O)CCOc4c(F)cccc4[C@H]4CC[C@H](CC4)OC[C@H]32)N1 (single isomer, unassigned) [Example 48a]
18 | < 0.1 µM | O=C1COC[C@]2(CCCN3C(=O)CCOc4c(F)cccc4[C@H]4CC[C@H](CC4)OC[C@@H]32)N1 (single isomer, unassigned) [Example 48b]
19 | < 0.1 µM | O=C1COC[C@@]2(CCCN3C(=O)CCOc4ccc(F)cc4[C@H]4CC[C@H](CC4)OC[C@H]32)N1 (single isomer, unassigned) [Example 49a]
20 | < 0.1 µM | O=C1COC[C@]2(CCCN3C(=O)CCOc4ccc(F)cc4[C@H]4CC[C@H](CC4)OC[C@@H]32)N1 (single isomer, unassigned) [Example 49b]
21 | < 0.1 µM | O=C1COC[C@@]2(CCCN3C(=O)CCOc4c(F)cc(F)cc4[C@H]4CC[C@H](CC4)OC[C@H]32)N1 (single isomer, unassigned) [Example 50a]
